Reference: the supplement of paper PMC10307832

What was measured:
Assay in all cases: relative viability (nuclei count vs DMSO), 5 days (fraction); higher = more cells survive
COR-L23 = system: COR-L23
Summary of the method: (§1)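 Lung cancer cell lines, seeded in 1536-well plates, were treated the following day by pin tool with a single drug or with five library-drug doses (not always all listed) in √10 steps on top of a fixed anchor-drug dose. Cells were fixed and nuclei stained in one step after 5 days, and nuclei were counted. Relative viability is the nuclei count for treated wells divided by that for vehicle wells, reported as medians of duplicate plates.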

EPLC-272H = system: EPLC-272H
Summary of the method: as §1

HARA = system: HARA
Summary of the method: as §1

HCC-15 = system: HCC-15
Summary of the method: as §1

HCC-78 = system: HCC-78
Summary of the method: as §1

LC-2-ad = system: LC-2-ad
Summary of the method: as §1

LU99A = system: LU99A
Summary of the method: as §1

NCI-H1651 = system: NCI-H1651
Summary of the method: as §1

NCI-H1915 = system: NCI-H1915
Summary of the method: as §1

NCI-H1993 = system: NCI-H1993
Summary of the method: as §1

NCI-H2009 = system: NCI-H2009
Summary of the method: as §1

NCI-H2085 = system: NCI-H2085
Summary of the method: as §1

NCI-H2126 = system: NCI-H2126
Summary of the method: as §1

NCI-H2347 = system: NCI-H2347
Summary of the method: as §1

NCI-H460 = system: NCI-H460
Summary of the method: as §1

NCI-H838 = system: NCI-H838
Summary of the method: as §1

PC-14 = system: PC-14
Summary of the method: as §1

SW 1573 = system: SW 1573
Summary of the method: as §1

UMC-11 = system: UMC-11
Summary of the method: as §1

COc1cc(N2CCC(C(N)=O)CC2)ccc1Nc1nc(N)c(Cl)c(Nc2ccccc2S(=O)(=O)C(C)C)n1 [HG-5-88-01] + CC1(C)CCC(c2ccc(Cl)cc2)=C(CN2CCN(c3ccc(C(=O)NS(=O)(=O)c4ccc(N[C@H](CCN5CCOCC5)CSc5ccccc5)c(S(=O)(=O)C(F)(F)F)c4)cc3)CC2)C1 [Navitoclax] (partner 0.5 µM)
relative viability (COR-L23; first compound 0.04 µM): 0.936 | relative viability (COR-L23; first compound 0.1265 µM): 1 | relative viability (COR-L23; first compound 0.4 µM): 0.998 | relative viability (COR-L23; first compound 1.265 µM): 0.883 | relative viability (COR-L23; first compound 4 µM): 0.98 | relative viability (EPLC-272H; first compound 0.04 µM): 1.22 | relative viability (EPLC-272H; first compound 0.1265 µM): 1.05 | relative viability (EPLC-272H; first compound 0.4 µM): 1.28 | relative viability (EPLC-272H; first compound 1.265 µM): 0.982 | relative viability (EPLC-272H; first compound 4 µM): 0.27 | relative viability (HARA; first compound 0.04 µM): 1.16 | relative viability (HARA; first compound 0.1265 µM): 1.14 | relative viability (HARA; first compound 0.4 µM): 1.13 | relative viability (HARA; first compound 1.265 µM): 1.19 | relative viability (HARA; first compound 4 µM): 1.18 | relative viability (HCC-15; first compound 0.04 µM): 0.702 | relative viability (HCC-15; first compound 0.1265 µM): 0.74 | relative viability (HCC-15; first compound 0.4 µM): 0.672 | relative viability (HCC-15; first compound 1.265 µM): 0.723 | relative viability (HCC-15; first compound 4 µM): 0.464 | relative viability (HCC-78; first compound 0.04 µM): 0.749 | relative viability (HCC-78; first compound 0.1265 µM): 0.555 | relative viability (HCC-78; first compound 0.4 µM): 0.363 | relative viability (HCC-78; first compound 1.265 µM): 0.158 | relative viability (HCC-78; first compound 4 µM): 0.297 | relative viability (LC-2-ad; first compound 0.04 µM): 0.444 | relative viability (LC-2-ad; first compound 0.1265 µM): 0.45 | relative viability (LC-2-ad; first compound 0.4 µM): 0.477 | relative viability (LC-2-ad; first compound 1.265 µM): 0.379 | relative viability (LC-2-ad; first compound 4 µM): 0.278 | relative viability (LU99A; first compound 0.04 µM): 0.781 | relative viability (LU99A; first compound 0.1265 µM): 0.96 | relative viability (LU99A; first compound 0.4 µM): 0.75 | relative viability (LU99A; first compound 1.265 µM): 0.764 | relative viability (LU99A; first compound 4 µM): 0.996 | relative viability (NCI-H1651; first compound 0.04 µM): 1.27 | relative viability (NCI-H1651; first compound 0.1265 µM): 1.04 | relative viability (NCI-H1651; first compound 0.4 µM): 1.08 | relative viability (NCI-H1651; first compound 1.265 µM): 1.05 | relative viability (NCI-H1651; first compound 4 µM): 1.04 | relative viability (NCI-H1915; first compound 0.04 µM): 0.771 | relative viability (NCI-H1915; first compound 0.1265 µM): 0.783 | relative viability (NCI-H1915; first compound 0.4 µM): 0.813 | relative viability (NCI-H1915; first compound 1.265 µM): 0.845 | relative viability (NCI-H1915; first compound 4 µM): 0.669 | relative viability (NCI-H1993; first compound 0.04 µM): 1.06 | relative viability (NCI-H1993; first compound 0.1265 µM): 0.976 | relative viability (NCI-H1993; first compound 0.4 µM): 0.911 | relative viability (NCI-H1993; first compound 1.265 µM): 0.736 | relative viability (NCI-H1993; first compound 4 µM): 0.735 | relative viability (NCI-H2009; first compound 0.04 µM): 1.2 | relative viability (NCI-H2009; first compound 0.1265 µM): 1.32 | relative viability (NCI-H2009; first compound 0.4 µM): 1.15 | relative viability (NCI-H2009; first compound 1.265 µM): 1.06 | relative viability (NCI-H2009; first compound 4 µM): 1.15 | relative viability (NCI-H2085; first compound 0.04 µM): 1.2 | relative viability (NCI-H2085; first compound 0.1265 µM): 1.26 | relative viability (NCI-H2085; first compound 0.4 µM): 1.06 | relative viability (NCI-H2085; first compound 1.265 µM): 0.873 | relative viability (NCI-H2085; first compound 4 µM): 1.13 | relative viability (NCI-H2126; first compound 0.04 µM): 0.88 | relative viability (NCI-H2126; first compound 0.1265 µM): 0.882 | relative viability (NCI-H2126; first compound 0.4 µM): 0.753 | relative viability (NCI-H2126; first compound 1.265 µM): 0.84 | relative viability (NCI-H2126; first compound 4 µM): 0.794 | relative viability (NCI-H2347; first compound 0.04 µM): 0.786 | relative viability (NCI-H2347; first compound 0.1265 µM): 0.863 | relative viability (NCI-H2347; first compound 0.4 µM): 0.893 | relative viability (NCI-H2347; first compound 1.265 µM): 0.696 | relative viability (NCI-H2347; first compound 4 µM): 0.685 | relative viability (NCI-H460; first compound 0.04 µM): 0.975 | relative viability (NCI-H460; first compound 0.1265 µM): 1.12 | relative viability (NCI-H460; first compound 0.4 µM): 0.901 | relative viability (NCI-H460; first compound 1.265 µM): 1.15 | relative viability (NCI-H460; first compound 4 µM): 1.06 | relative viability (NCI-H838; first compound 0.04 µM): 1.09 | relative viability (NCI-H838; first compound 0.1265 µM): 1.2 | relative viability (NCI-H838; first compound 0.4 µM): 1.07 | relative viability (NCI-H838; first compound 1.265 µM): 0.973 | relative viability (NCI-H838; first compound 4 µM): 0.904 | relative viability (PC-14; first compound 0.04 µM): 0.953 | relative viability (PC-14; first compound 0.1265 µM): 1.05 | relative viability (PC-14; first compound 0.4 µM): 0.995 | relative viability (PC-14; first compound 1.265 µM): 1.12 | relative viability (PC-14; first compound 4 µM): 0.272 | relative viability (SW 1573; first compound 0.04 µM): 0.952 | relative viability (SW 1573; first compound 0.1265 µM): 1.05 | relative viability (SW 1573; first compound 0.4 µM): 0.9 | relative viability (SW 1573; first compound 1.265 µM): 0.996 | relative viability (SW 1573; first compound 4 µM): 0.863 | relative viability (UMC-11; first compound 0.04 µM): 0.338 | relative viability (UMC-11; first compound 0.1265 µM): 0.376 | relative viability (UMC-11; first compound 0.4 µM): 0.333 | relative viability (UMC-11; first compound 1.265 µM): 0.322 | relative viability (UMC-11; first compound 4 µM): 0.303
